The text below walks through data of ChEMBL document CHEMBL4840345, “Penispidins A-C, Aromatic Sesquiterpenoids from Penicillium virgatum and Their Inhibitory Effects on Hepatic Lipid Accumulation” (J Nat Prod, 2021).

Calls of active or inactive are those of the source. No cut-off for these calls is given here.

For data set [1], the system named is HepG2. The data set is described as follows: Cytotoxicity against human HepG2 cells assessed as cell viability at 10 uM measured after 24 hrs by MTT assay. Format: cell-based. To be noted: hepg2, 24 h. For orientation: Formazan colour is commonly taken as a measure of viable cells.
The test system of data set [2] is HepG2. The experiment in a line: Hypolipidemic activity in human HepG2 cells assessed as inhibition of oleic acid-BSA induced triglyceride accumulation at 10 uM after 24 hrs. In kind it is functional, cell-based.
In data set [3] the test system is HepG2. The experiment in a line: Hypolipidemic activity in human HepG2 cells assessed as inhibition of oleic acid-BSA induced intracellular lipid accumulation at 10 uM after 24 hrs by Oil Red O staining based microscopic assay. In kind it is functional, cell-based.

Regarding `COC(=O)c1ccc2c(c1)O[C@]1(C)CCC[C@@]2(C)C1`, the Activity result in data set [1] is on record as “Non-Toxic”. Consider `COC(=O)c1ccc2c(c1)OC(C)(C)[C@@H]1CC[C@]21C`, for which the result in data set [2] was Active. Also, in data set [3], the inhibition entry is “Active”. Besides, in data set [1], the Activity result is listed as “Non-Toxic”. Regarding `C[C@@]12CCC[C@@](C)(C1)c1ccc(C(=O)O)cc1O2`, the Activity entry in data set [1] is recorded as “Non-Toxic”. On the same count and under the same terms, the result for `C[C@]12CCC[C@](C)(C1)c1ccc(C(=O)O)cc1O2` reads “Non-Toxic”.
